Data on two compounds can be found in patent publication US20230355606A1, “LONG-ACTING FORMULATIONS” (Janssen Pharmaceutica NV, priority 2020, published 2023).

One test relates to M. tuberculosis H37Rv. In kind it is in vivo, Mycobacterium tuberculosis. Conditions: for reduction of mean CFU count compared to untreated mice: R10 (5/7); for Mean (SD) log10 M. tuberculosis CFU/lung: rifampin 10 mg/kg, 5/7, gavage, mice.
The test system of test [1] is mycobacterial ATP synthase versus eukaryotic mitochondrial ATP synthase. Conditions: cited from earlier work.
In the next test the test system is M. tuberculosis. Conditions: mice; cited from earlier work.
For another test, the system named is Mycobacterium leprae. The settings on record: M. lepra, mice; cited from earlier work.

Read-outs that look alike come from different tables or passages of the source.

As for `CO[C@H]1/C=C/O[C@@]2(C)Oc3c(C)c(O)c4c(O)c(c(/C=N/N5CCN(C)CC5)c(O)c4c3C2=O)NC(=O)/C(C)=C\C=C\[C@H](C)[C@H](O)[C@@H](C)[C@@H](O)[C@@H](C)[C@H](OC(C)=O)[C@@H]1C` [R, rifampin], the “reduction of mean CFU count compared to untreated mice” value is listed as “approximately 1 log10 CFU/lung” with M. tuberculosis H37Rv (after 4 weeks of treatment), “about 2 log10 CFU/lung” in the test with M. tuberculosis H37Rv (after 8 weeks of treatment) and around 3 log10 CFU/lung in the test on M. tuberculosis H37Rv (after 12 weeks of treatment). The “Mean (SD) log10 M. tuberculosis CFU/lung” value in the test with M. tuberculosis H37Rv (Week 4) is listed as 3.39 (0.46) log10 CFU/lung; in the test with M. tuberculosis H37Rv (Week 8) it was 2.74 (0.62) log10 CFU/lung; in the test on M. tuberculosis H37Rv (Week 12) it was 1.27 (0.85) log10 CFU/lung.

Turning to `COc1nc2ccc(Br)cc2cc1[C@@H](c1ccccc1)[C@@](O)(CCN(C)C)c1cccc2ccccc12` [bedaquiline], in test [1], the selectivity index entry was “more than 20000”. Besides, the “minimal dose killing 99% of bacilli” value is 30 mg/kg/wk with M. tuberculosis and below 5.0 mg/kg/wk in the test on Mycobacterium leprae.
